Source: ChEMBL document CHEMBL1139557, “Synthesis and relative bioavailability of meptazinol benzoyl esters as prodrugs” (Bioorg Med Chem Lett, 2005)

Experiments:
[1] = Relative bioavailability in stomach closed loop study in rats; Mean of 4 exp; assay type: ADME, organism-based; conditions: rat, in vivo; read-out: Relative Bioavailability
[2] = Relative bioavailability in jejunum closed loop study in rats; Mean of 4 exp; assay type: ADME, organism-based; conditions: rat, in vivo, other
[3] = (§1) Bioavailability in rat; assay type: ADME, organism-based; conditions: in vivo
[4] = as §1; assay type: ADME, organism-based; conditions: in vivo; remark: listed apart in the source
[5] = as §1; assay type: ADME, organism-based; conditions: in vivo; remark: listed apart in the source
[6] = as §1; assay type: ADME, organism-based; conditions: in vivo; remark: listed apart in the source
[7] = as §1; assay type: ADME, organism-based; conditions: in vivo; remark: listed apart in the source
[8] = as §1; assay type: ADME, organism-based; conditions: in vivo; remark: listed apart in the source
Mus musculus [9] = assay: Analgesic activity against mice in acetylcholine induced mice writhing test when dosed at 50 umol/kg (ig) administration after 80 min; assay type: functional
Mus musculus [10] = assay: Analgesic activity against mice in acetylcholine induced mice writhing test when dosed at 50 umol/kg (ig) administration after 40 min; assay type: functional
Mus musculus [11] = assay: Analgesic activity in hot plate test when dosed at 100 umol/kg intraperitoneally; assay type: functional
Mus musculus [12] = assay: Analgesic activity against mice in hot plate test when dosed at 100 umol/kg intraperitoneally; assay type: functional

Structure (SMILES)	bioavailability [1] [%]	Relative Bioavailability [2] [%]	F [3] [%]	bioavailability [4] [%]	bioavailability [5] [%]	F [6] [%]	bioavailability [7] [%]	bioavailability [8] [%]	bioavailability [3] [%]	Activity (Mus musculus [9])	Activity (Mus musculus [10])	Activity (Mus musculus [11])	bioavailability [6] [%]	Activity (Mus musculus [12])	F [8] [%]
CCC1(c2cccc(OC(=O)c3c(C)cccc3N)c2)CCCCN(C)C1.Cl (stereo unspecified)	65.4	562.72													
CCC1(c2cccc(OC(=O)c3c(C)cccc3N)c2)CCCCN(C)C1 (stereo unspecified)			167.97	149	136	174.27	130	120							
CCC1(c2cccc(OC(=O)c3ccccc3)c2)CCCCN(C)C1 (stereo unspecified)				133	112		75.4	53.9	81.6	2	2	4	58.1		
CCC1(c2cccc(OC(=O)c3ccccc3N)c2)CCCCN(C)C1 (stereo unspecified)				80.4	107		59.8		81.9	0	1		101	3	183.64
